From patent publication US11980596B2 (priority 2017, dated 2024)

Columns and labels:
[1] = system: patients with treatment-resistant depression (TRD); experiment: Adverse events (Example 7); type: in vivo, human; details: for Dissociation, number of participants / Dissociative disorder, % of participants / Dissociative disorder, number of participants / Dizziness, % of participants / Dizziness, number of participants / Dysgeusia, % of participants / Dysgeusia, number of participants / Feeling abnormal, % of participants / Feeling abnormal, number of participants / Headache, % of participants / Headache, number of participants / Hypersomnia, % of participants / Hypersomnia, number of participants / Hypertension, number of participants / Hypoesthesia oral, % of participants / Hypoesthesia oral, number of participants / Insomnia, number of participants / Nasal discomfort, number of participants / Nausea, % of participants / Nausea, number of participants / Oropharyngeal pain, number of participants / Polyuria, number of participants / Sedation, % of participants / Sedation, number of participants / Throat irritation, % of participants / Throat irritation, number of participants / Total with events, % of participants / Total with events, number of participants / Tunnel vision, number of participants / Vertigo, % of participants / Vertigo, number of participants / Vision blurred, number of participants / Dissociation, % of participants / Hypertension, % of participants / Insomnia, % of participants / Nasal discomfort, % of participants / Oropharyngeal pain, % of participants / Polyuria, % of participants / Tunnel vision, % of participants / Vision blurred, % of participants: double-blind
Procedure: Adverse events were monitored throughout the study. Other safety assessments (i.e., laboratory tests, vital signs, physical examination) were performed at pre-specified time points. Vital signs, the Clinician Administered Dissociative States Scale (CADSS; Bremner, “Measurement of dissociative states with the clinician-administered dissociative states scale (CADSS)”, J. Traumatic Stress, 1998, 11(1):125-136), and the 4-item positive symptom subscale from the Brief Psychiatric Rating Scale (BPRS; Overall, “The Brief Psychiatric Rating Scale. Psychological Reports”, 1962, 10:799-812) were assessed pre-dose, at 40 minutes, and 2 hours post-dose.
Safety data were analyzed in Period 1, Period 2, double-blind, and open-label data sets, for all subjects receiving at least 1 dose of study medication.

CYP2B6, CYP3A4, CYP1A2 = experiment: CYP induction in human hepatocytes
Protein binding = type: in vitro ADME
Excerpt: Protein binding of esketamine was approximately 43% to 45%.

## CN[C@]1(c2ccccc2Cl)CCCCC1=O [esketamine, (S)-2-(2-chlorophenyl)-2-(methylamino)cyclohexanone]
[1]; esketamine 28 mg, N = 19
  Dissociation, number of participants: 0
  Dissociative disorder, % of participants: (11) %
  Dissociative disorder, number of participants: 2
  Dizziness, % of participants: (21) %
  Dizziness, number of participants: 4
  Dysgeusia, % of participants: (11) %
  Dysgeusia, number of participants: 2
  Feeling abnormal, % of participants: (11) %
  Feeling abnormal, number of participants: 2
  Headache, % of participants: (32) %
  Headache, number of participants: 6
  Hypersomnia, % of participants: (11) %
  Hypersomnia, number of participants: 2
  Hypertension, number of participants: 0
  Hypoesthesia oral, % of participants: (5) %
  Hypoesthesia oral, number of participants: 1
  Insomnia, number of participants: 0
  Nasal discomfort, number of participants: 0
  Nausea, % of participants: (11) %
  Nausea, number of participants: 2
  Oropharyngeal pain, number of participants: 0
  Polyuria, number of participants: 0
  Sedation, % of participants: (5) %
  Sedation, number of participants: 1
  Throat irritation, % of participants: (5) %
  Throat irritation, number of participants: 1
  Total with events, % of participants: (58) %
  Total with events, number of participants: 11
  Tunnel vision, number of participants: 0
  Vertigo, % of participants: (11) %
  Vertigo, number of participants: 2
  Vision blurred, number of participants: 0
[1]; esketamine 56 mg, N = 20
  Dissociation, % of participants: (35) %
  Dissociation, number of participants: 7
  Dissociative disorder, % of participants: (5) %
  Dissociative disorder, number of participants: 1
  Dizziness, % of participants: (40) %
  Dizziness, number of participants: 8
  Dysgeusia, % of participants: (15) %
  Dysgeusia, number of participants: 3
  Feeling abnormal, % of participants: (5) %
  Feeling abnormal, number of participants: 1
  Headache, % of participants: (15) %
  Headache, number of participants: 3
  Hypersomnia, number of participants: 0
  Hypertension, % of participants: (10) %
  Hypertension, number of participants: 2
  Hypoesthesia oral, % of participants: (20) %
  Hypoesthesia oral, number of participants: 4
  Insomnia, % of participants: (10) %
  Insomnia, number of participants: 2
  Nasal discomfort, % of participants: (10) %
  Nasal discomfort, number of participants: 2
  Nausea, % of participants: (20) %
  Nausea, number of participants: 4
  Oropharyngeal pain, % of participants: (5) %
  Oropharyngeal pain, number of participants: 1
  Polyuria, % of participants: (10) %
  Polyuria, number of participants: 2
  Sedation, % of participants: (10) %
  Sedation, number of participants: 2
  Throat irritation, number of participants: 0
  Total with events, % of participants: (80) %
  Total with events, number of participants: 16
  Tunnel vision, number of participants: 0
  Vertigo, % of participants: (5) %
  Vertigo, number of participants: 1
  Vision blurred, number of participants: 0
[1]; esketamine 84 mg, N = 17
  Dissociation, % of participants: (24) %
  Dissociation, number of participants: 4
  Dissociative disorder, % of participants: (24) %
  Dissociative disorder, number of participants: 4
  Dizziness, % of participants: (47) %
  Dizziness, number of participants: 8
  Dysgeusia, % of participants: (29) %
  Dysgeusia, number of participants: 5
  Feeling abnormal, % of participants: (6) %
  Feeling abnormal, number of participants: 1
  Headache, % of participants: (18) %
  Headache, number of participants: 3
  Hypersomnia, number of participants: 0
  Hypertension, % of participants: (6) %
  Hypertension, number of participants: 1
  Hypoesthesia oral, % of participants: (12) %
  Hypoesthesia oral, number of participants: 2
  Insomnia, number of participants: 0
  Nasal discomfort, % of participants: (6) %
  Nasal discomfort, number of participants: 1
  Nausea, % of participants: (24) %
  Nausea, number of participants: 4
  Oropharyngeal pain, % of participants: (12) %
  Oropharyngeal pain, number of participants: 2
  Polyuria, number of participants: 0
  Sedation, % of participants: (6) %
  Sedation, number of participants: 1
  Throat irritation, % of participants: (12) %
  Throat irritation, number of participants: 2
  Total with events, % of participants: (88) %
  Total with events, number of participants: 15
  Tunnel vision, % of participants: (12) %
  Tunnel vision, number of participants: 2
  Vertigo, % of participants: (6) %
  Vertigo, number of participants: 1
  Vision blurred, % of participants: (12) %
  Vision blurred, number of participants: 2
[1]; esketamine Total, N = 56
  Dissociation, % of participants: (20) %
  Dissociation, number of participants: 11
  Dissociative disorder, % of participants: (13) %
  Dissociative disorder, number of participants: 7
  Dizziness, % of participants: (36) %
  Dizziness, number of participants: 20
  Dysgeusia, % of participants: (18) %
  Dysgeusia, number of participants: 10
  Feeling abnormal, % of participants: (7) %
  Feeling abnormal, number of participants: 4
  Headache, % of participants: (21) %
  Headache, number of participants: 12
  Hypersomnia, % of participants: (4) %
  Hypersomnia, number of participants: 2
  Hypertension, % of participants: (5) %
  Hypertension, number of participants: 3
  Hypoesthesia oral, % of participants: (13) %
  Hypoesthesia oral, number of participants: 7
  Insomnia, % of participants: (4) %
  Insomnia, number of participants: 2
  Nasal discomfort, % of participants: (5) %
  Nasal discomfort, number of participants: 3
  Nausea, % of participants: (18) %
  Nausea, number of participants: 10
  Oropharyngeal pain, % of participants: (5) %
  Oropharyngeal pain, number of participants: 3
  Polyuria, % of participants: (4) %
  Polyuria, number of participants: 2
  Sedation, % of participants: (7) %
  Sedation, number of participants: 4
  Throat irritation, % of participants: (5) %
  Throat irritation, number of participants: 3
  Total with events, % of participants: (75) %
  Total with events, number of participants: 42
  Tunnel vision, % of participants: (4) %
  Tunnel vision, number of participants: 2
  Vertigo, % of participants: (7) %
  Vertigo, number of participants: 4
  Vision blurred, % of participants: (4) %
  Vision blurred, number of participants: 2
[1]; open-label phase
  Adverse event: dizziness: 38.6%
  Adverse event: dysgeusia: 22.8%
  Adverse event: headache: 14.0%
  Adverse event: nausea: 15.8%
  Adverse event: sedation: 10.5%
CYP2B6, CYP3A4, CYP1A2; hepatocytes
  Induction of CYP1A2: do not induce
CYP2B6, CYP3A4, CYP1A2; human hepatocytes
  Induction of CYP2B6 and CYP3A4: modest induction effects
Protein binding
  fraction unbound: 0.55 to 0.57
